In US9920074B2 (ACEA BIOSCIENCES INC., priority 2013, dated 2018):

Tests used:
[1] = biological target: T1, Btk (Tyr223) phosphorylation in Ramos cells (Homo sapiens, UniProt Q06187); test: Western blotting assay for Btk (Example 73); assay type: cell-based; settings: 45 min, 6 μg/mL anti-IgM, read-out: Btk Inhibition
T1 construct: endogenous in cells; host or cells: Ramos cells (ATCC)
Protocol: (§1) All cell lines were obtained from the American Type Culture Collection and were maintained at 37° C. with 5% CO2. Ramos cell line was maintained in media supplemented with 10% fetal bovine serum, penicillin (100 units/mL) and streptomycin (100 μg/mL). NK-92 cell line was maintained in media supplemented with 10% fetal bovine serum and 10% horse serum, penicillin (100 units/mL) and streptomycin (100 μg/mL), IL-2 10 ng/mL. Goat F(ab′)2 Anti-Human IgM-UNLB was obtained from SouthernBiotech. IL-2 was obtained from Peprotech.
Ramos cells were treated with compounds at indicated doses for 45 min at room temperature, followed by stimulation of 6 μg/mL of anti-IgM for 30 min, and then lysed. Western blots were performed on the cell lysate using Phospho-Btk (Tyr223), Phospho-Btk (Tyr551), Btk, Phospho-PLCγ2 (Tyr1217), PLCγ2, Phospho-p44/42 MAPK (Erk1/2) (Thr202/Tyr204) and p44/42 MAPK (Erk1/2) antibodies (Cell Signaling Technology). The density of blotting band was acquired using ImageJ software, and the IC50 of Btk (Tyr223) phosphorylation was fitted using a non-linear regression model by GraphPad Prism.

[2] = test system: Stat5 phosphorylation in NK-92 cells; test: Western blotting assay for Stat5; assay type: cell-based; settings: NK92, 1 hour, IL-2 stimulation, read-out: Stat5 inhibition
Protocol: as §1
NK-92 cells were treated with compounds at the dosed indicated for 1 hour in incubator, followed by the IL-2 stimulation for 15 minutes. Cells were then collected and lysed to prepare the cellular extraction. Western blots were performed on cell lysate using Phospho-Jak3, Jak3, Phospho-Stat5, Stat5 antibodies (Cell Signaling Technology). The intensity of blotting band was acquired using Image Lab (Bio-Rad) software, and the IC50 of target was generated with GraphPad Prism.

T1 sequence (Q06187 whole entry): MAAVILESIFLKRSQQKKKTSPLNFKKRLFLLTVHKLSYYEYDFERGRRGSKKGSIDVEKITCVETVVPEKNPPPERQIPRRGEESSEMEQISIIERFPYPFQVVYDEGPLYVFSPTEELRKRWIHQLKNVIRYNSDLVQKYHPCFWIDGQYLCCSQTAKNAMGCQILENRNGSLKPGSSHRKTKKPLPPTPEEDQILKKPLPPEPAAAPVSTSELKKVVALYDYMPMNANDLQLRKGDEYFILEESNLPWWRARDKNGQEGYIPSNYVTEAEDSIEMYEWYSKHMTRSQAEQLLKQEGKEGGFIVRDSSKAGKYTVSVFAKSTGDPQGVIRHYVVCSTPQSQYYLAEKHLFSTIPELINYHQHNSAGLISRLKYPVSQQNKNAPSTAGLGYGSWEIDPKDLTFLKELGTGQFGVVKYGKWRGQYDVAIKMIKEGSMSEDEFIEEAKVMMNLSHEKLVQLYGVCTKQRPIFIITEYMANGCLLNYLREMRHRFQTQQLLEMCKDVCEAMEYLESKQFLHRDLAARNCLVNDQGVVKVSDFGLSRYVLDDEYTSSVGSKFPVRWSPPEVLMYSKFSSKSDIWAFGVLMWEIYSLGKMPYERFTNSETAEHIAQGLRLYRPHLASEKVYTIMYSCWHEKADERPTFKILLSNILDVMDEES

| SMILES | IC50 [1] | IC50 [2] |
| --- | --- | --- |
| C=CC(=O)Nc1cccc(Oc2nc(Nc3ccc(N[C@H]4CCN(CCOC)C4)cc3)nc3[nH]ccc23)c1 [Compound I-40a, (S)—N-(3-(2-(4-(1-(2-methoxyethyl)pyrrolidin-3-ylamino)phenylamino)-7H-pyrrolo[2,3-d]pyrimidin-4-yloxy)phenyl)acrylamide] | ≤ 10 nM | ≥ 400 nM |
| C=CC(=O)Nc1cccc(Oc2nc(Nc3ccc(N4CCN(CCOC)CC4)c(F)c3)nc3[nH]ccc23)c1 [Compound I-48a, N-(3-(2-(3-fluoro-4-(4-(2-methoxyethyl)piperazin-1-yl)phenylamino)-7H-pyrrolo[2,3-d]pyrimidin-4-yloxy)phenyl)acrylamide] | ≤ 10 nM | 200 to 400 nM |
| C=CC(=O)Nc1cccc(Oc2nc(Nc3ccc(N(C)[C@H]4CCN(CCOC)C4)cc3)nc3[nH]ccc23)c1 [Compound I-49a, (S)—N-(3-(2-(4-((1-(2-methoxyethyl)pyrrolidin-3-yl)(methyl)amino)phenylamino)-7H-pyrrolo[2,3-d]pyrimidin-4-yloxy)phenyl)acrylamide] | ≤ 10 nM | ≥ 400 nM |
| C=CC(=O)Nc1cccc(Oc2nc(Nc3ccc4c(c3)CS(=O)(=O)N4)ncc2OC)c1 [Compound I-70a, N-(3-((2-((2,2-dioxido-1,3-dihydrobenzo[c]isothiazol-5-yl)amino)-5-methoxypyrimidin-4-yl)oxy)phenyl)acrylamide] | 10 to 100 nM | – |
| C=CC(=O)Nc1cccc(Oc2nc(Nc3ccc(N[C@H]4CCN(CCF)C4)cc3)nc3[nH]ccc23)c1 [Compound I-27a, (S)—N-(3-(2-(4-(1-(2-fluoroethyl)pyrrolidin-3-ylamino)phenylamino)-7H-pyrrolo[2,3-d]pyrimidin-4-yloxy)phenyl)acrylamide] | ≤ 10 nM | – |
| C=CC(=O)Nc1cccc(Oc2nc(Nc3ccc(N(CC)[C@H]4CCN(CCOC)C4)cc3)ncc2OC)c1 [Compound I-51a, (S)—N-(3-(2-(4-(ethyl(1-(2-methoxyethyl)pyrrolidin-3-yl)amino)phenylamino)-5-methoxypyrimidin-4-yloxy)phenyl)acrylamide] | ≤ 10 nM | ≥ 400 nM |
| C=CC(=O)Nc1cccc(Oc2nc(Nc3ccc(N4CCN(C(C)=O)CC4)cc3)nc3[nH]cnc23)c1 [Compound I-68a, N-(3-(2-(4-(4-acetylpiperazin-1-yl)phenylamino)-9H-purin-6-yloxy)phenyl)acrylamide] | 10 to 100 nM | – |
| C=CC(=O)Nc1cccc(Oc2nc(Nc3ccc4c(c3)CCN4CCOC)ncc2OC)c1 [Compound I-34a, N-(3-(5-methoxy-2-(1-(2-methoxyethyl)indolin-5-ylamino)pyrimidin-4-yloxy)phenyl)acrylamide] | ≤ 10 nM | ≥ 400 nM |
| C=CC(=O)Nc1cccc(Oc2nc(Nc3ccc4c(c3)CCN4C(C)=O)ncc2OC)c1 [Compound I-56a, N-(3-(2-(1-acetylindolin-5-ylamino)-5-methoxypyrimidin-4-yloxy)phenyl)acrylamide] | ≤ 10 nM | 200 to 400 nM |
| C=CC(=O)Nc1cccc(Oc2nc(Nc3cccc4c3CCN4CCOC)ncc2OC)c1 [Compound I-28a, N-(3-(5-methoxy-2-(1-(2-methoxyethyl)indolin-4-ylamino)pyrimidin-4-yloxy)phenyl)acrylamide] | 10 to 100 nM | – |
| C=CC(=O)Nc1cccc(Oc2nc(Nc3ccc(NCCOC)cc3)ncc2OC)c1 [Compound I-32a, N-(3-(5-methoxy-2-(4-(2-methoxyethylamino)phenylamino)pyrimidin-4-yloxy)phenyl)acrylamide] | ≤ 10 nM | ≥ 400 nM |
| C=CC(=O)Nc1cccc(Oc2nc(Nc3ccc(N(C)[C@H]4CCN(S(C)(=O)=O)C4)cc3)nc3[nH]ccc23)c1 [Compound I-63a, (S)—N-(3-(2-(4-(methyl(1-(methylsulfonyl)pyrrolidin-3-yl)amino)phenylamino)-7H-pyrrolo[2,3-d]pyrimidin-4-yloxy)phenyl)acrylamide] | ≤ 10 nM | – |
| C=CC(=O)Nc1cccc(Oc2nc(Nc3ccc(N[C@H]4CCN(C(C)=O)C4)cc3)ncc2OC)c1 [Compound I-66a, (S)—N-(3-(2-(4-((1-acetylpyrrolidin-3-yl)amino)phenylamino)-5-methoxypyrimidin-4-yloxy)phenyl)acrylamide] | ≤ 10 nM | – |
| C=CC(=O)Nc1cccc(Oc2nc(Nc3ccc(N(C)[C@H]4CCN(CCF)C4)cc3)nc3[nH]ccc23)c1 [Compound I-26a, (S)—N-(3-(2-(4-((1-(2-fluoroethyl)pyrrolidin-3-yl)(methyl)amino)phenylamino)-7H-pyrrolo[2,3-d]pyrimidin-4-yloxy)phenyl)acrylamide] | 10 to 100 nM | – |
| C=CC(=O)Nc1cccc(Oc2nc(Nc3ccc(N(C)[C@H]4CCN(CCOC)C4)cc3OC)ncc2OC)c1 [Compound I-55a, (S)—N-(3-(5-methoxy-2-(2-methoxy-4-((1-(2-methoxyethyl)pyrrolidin-3-yl)(methyl)amino)phenylamino)pyrimidin-4-yloxy)phenyl)acrylamide] | ≥ 100 nM | – |
| C=CC(=O)Nc1cccc(Oc2nc(Nc3ccc(N[C@H]4CCN(C(C)=O)C4)cc3)nc3[nH]ccc23)c1 [Compound I-61a, (S)—N-(3-(2-(4-(1-acetylpyrrolidin-3-ylamino)phenylamino)-7H-pyrrolo[2,3-d]pyrimidin-4-yloxy)phenyl)acrylamide] | ≤ 10 nM | – |
| C=CC(=O)Nc1cccc(Oc2nc(Nc3ccc(N(C)[C@@H]4CCN(C(C)=O)C4)cc3)ncc2OC)c1 [Compound I-72a, (R)—N-(3-(2-(4-((1-acetylpyrrolidin-3-yl)(methyl)amino)phenylamino)-5-methoxypyrimidin-4-yloxy)phenyl)acrylamide] | ≤ 10 nM | – |
| C=CC(=O)Nc1cccc(Nc2nc(Nc3cccc4c3CCN4CCOC)ncc2OC)c1 [Compound I-29a, N-(3-(5-methoxy-2-(1-(2-methoxyethyl)indolin-4-ylamino)pyrimidin-4-ylamino)phenyl)acrylamide] | ≥ 100 nM | – |
| C=CC(=O)Nc1cccc(Oc2nc(Nc3ccc(N(C)[C@H]4CCN(C(C)=O)C4)cc3)nc3[nH]ccc23)c1 [Compound I-64a, (S)—N-(3-(2-(4-((1-acetylpyrrolidin-3-yl)(methyl)amino)phenylamino)-7H-pyrrolo[2,3-d]pyrimidin-4-yloxy)phenyl)acrylamide] | ≤ 10 nM | – |
| C=CC(=O)Nc1cccc(Oc2nc(Nc3ccc(N(C)[C@H]4CCN(S(C)(=O)=O)C4)cc3)ncc2OC)c1 [Compound I-60a, (S)—N-(3-(5-methoxy-2-(4-(methyl(1-(methylsulfonyl)pyrrolidin-3-yl)amino)phenylamino)pyrimidin-4-yloxy)phenyl)acrylamide] | ≤ 10 nM | – |
| C=CC(=O)Nc1cccc(Oc2nc(Nc3ccc(N4CCN(CCOC)CC4)cc3)nc3[nH]cnc23)c1 [Compound I-65a, N-(3-(2-(4-(4-(2-methoxyethyl)piperazin-1-yl)phenylamino)-9H-purin-6-yloxy)phenyl)acrylamide] | ≤ 10 nM | – |
| C=CC(=O)Nc1cccc(Oc2nc(Nc3ccc(N4CCN(CCS(C)(=O)=O)CC4)cc3)nc3[nH]cnc23)c1 [Compound I-69a, N-(3-(2-(4-(4-(2-(methylsulfonyl)ethyl)piperazin-1-yl)phenylamino)-9H-purin-6-yloxy)phenyl)acrylamide] | 10 to 100 nM | – |
| C=CC(=O)Nc1cccc(Oc2nc(Nc3ccc(N[C@H]4CCN(CCOC)C4)cc3)nc3[nH]cnc23)c1 [Compound I-67a, (S)—N-(3-(2-(4-(1-(2-methoxyethyl)pyrrolidin-3-ylamino)phenylamino)-9H-purin-6-yloxy)phenyl)acrylamide] | 10 to 100 nM | – |
| C=CC(=O)Nc1cccc(Oc2nc(Nc3ccc(N[C@@H]4CCN(CCF)C4)cc3)ncc2F)c1 [Compound I-19, (R)—N-(3-(5-fluoro-2-(4-(1-(2-fluoroethyl)pyrrolidin-3-ylamino)phenylamino)pyrimidin-4-yloxy)phenyl)acrylamide] | ≤ 10 nM | – |
| C=CC(=O)Nc1cccc(Oc2nc(Nc3ccc4c(c3)CCN4S(C)(=O)=O)ncc2OC)c1 [Compound I-59a, N-(3-(5-methoxy-2-(1-(methylsulfonyl)indolin-5-ylamino)pyrimidin-4-yloxy)phenyl)acrylamide] | ≤ 10 nM | – |
| C=CC(=O)Nc1cccc(Oc2nc(Nc3ccc(OCCOC)c(F)c3)nc3[nH]ccc23)c1 [Compound I-24a, N-(3-(2-(3-fluoro-4-(2-methoxyethoxy)phenylamino)-7H-pyrrolo[2,3-d]pyrimidin-4-yloxy)phenyl)acrylamide] | 10 to 100 nM | – |
| C=CC(=O)Nc1cccc(Oc2nc(Nc3ccc(N[C@H]4CCN(S(C)(=O)=O)C4)cc3)nc3[nH]ccc23)c1 [Compound I-62a, (S)—N-(3-(2-(4-(1-(methylsulfonyl)pyrrolidin-3-ylamino)phenylamino)-7H-pyrrolo[2,3-d]pyrimidin-4-yloxy)phenyl)acrylamide] | ≤ 10 nM | – |
| C=CC(=O)Nc1cccc(Oc2nc(Nc3ccc(N(C)[C@H]4CCN(S(C)(=O)=O)C4)cc3)nc3[nH]cnc23)c1 [Compound I-71a, (S)—N-(3-(2-(4-(methyl(1-(methylsulfonyl)pyrrolidin-3-yl)amino)phenylamino)-9H-purin-6-yloxy)phenyl)acrylamide] | ≤ 10 nM | – |
